Measurements reported in paper PMC12514245, “Impaired migration and lung invasion of human melanoma by a novel small molecule targeting the transmembrane domain of death receptor p75^NTR” (EMBO Molecular Medicine, 2025).
Where “and” joins values, the source holds several entries; their conditions need not be identical. Equal entries are not always repeated. Where two headings read alike, the source gives them in different places.

Assays:
[1] = biological target: T1, Matrix-2 protein (M2) TMD (Influenza A virus, UniProt P06821); format: cell-based; conditions: for GFP/OD630, M2, mean: N=3
T1 construct: unrelated TMDs from α2β3 integrin and Matrix-2 protein (M2); expressed in transfected cells

[2] = tested on: A875 NT cells; assay: Filopodia per cell (phalloidin staining), A875 NT; format: cell-based, human; conditions: for Filopodia per cell, mean of the well: EXP1 NT; for Filopodia per cell, mean of experiment: EXP1-EXP3; for Filopodia per cell, mean of three experiments: mean of EXP1-3
Method: For assessment of actin filaments, A875 cells were plated on glass coverslips in 24-well plate at a confluency of 3 × 10^4 cells/well. One day after plating, the cells were treated with 1 μM or 5 μM Np75-4A22 and NGF (100 ng/ml) or PBS for 24 h. Cells were fixed in 4% paraformaldehyde, permeabilized in 0.1% Triton-X-100, stained with Phalloidin-iFluor 488 (Abcam) at 1:2000 dilution and DAPI for 1 h. Coverslips were mounted and visualized in a laser confocal microscope.

[3] = tested on: A875-shp75 melanoma xenograft; assay: Melanoma lung invasion assay, A875-shp75, delayed treatment 3 weeks after cell injection; format: in vivo, SCID mice
Method: Finally, we investigated whether delayed administration of Np75-4A22 was able to affect engraftment and growth of metastatic tumors in the lung. To this end, drug treatment (orally at 200 mg/kg) was initiated 3 weeks after intravenous injection of A875-NT or A875-shp75 cells in female SCID mice and continued for additionally 4 weekly cycles (5 days on/2 days off) as above (Fig. 8E). Metastatic spread to the lungs was monitored weekly by bioluminescent imaging of luciferase-expressing melanoma cells. […] We conclude that Np75-4A22 can be efficacious at reducing the spread and seeding of melanoma cells in the lung when administered either before or after cell implantation.
Eight-week-old female SCID mice (Charles River Laboratories, Shrewsbury, MA, USA) were housed in groups of three to five and maintained on a 12-h light/dark schedule with a temperature of 22 °C ± 1 °C and a relative humidity of 50% ± 5%. Food and water were available ad libitum. This research study was reviewed and approved by the University of Calgary Animal Care Committee (AC22-0054) and McGill University (AUP-JGH-8269) and adheres to established ethical principles and guidelines. A875-GFPLuc (A875-NT) or A875-GFPLuc shp75 (A875-shp75) cells harvested using Puck’s EDTA were resuspended in PBS and injected intravenously into SCID mice (5 × 10^5 cells/200 μl per mouse). Np75-4A22 was dissolved in 0.5% sodium carboxymethyl cellulose (NaCMC) in reverse osmosis H2O and administered by oral gavage at 200 mg/kg/day starting one day prior to intravenous (tail vein) injection of tumor cells and continued for 3 1-week cycles (cycle: 5 days on drug, 2 days off drug). Tumor spread to the lung was monitored weekly by luciferase activity using the Xenogen IVIS-200 Optical in vivo luciferase imaging system as described previously (Lun et al, [2016]) and by immunohistochemistry (IHC) at designated time points. IHC was performed after formalin fixation, paraffin embedding and sectioning of the lungs, using a human-specific mouse polyclonal nucleolin antibody (1:500 dilution) and detected using Dako liquid DAB+ Substrate Chromogen System (Dako: k3468, California, USA) followed by a hematoxylin counterstain (Sigma, Oakville, ON, Canada). Sections were mounted and imaged on an Olympus phase contrast microscope (Olympus Life Science, Tokyo, Japan). For immunofluorescence, sections were stained with anti-human nucleolin and anti-human p75NTR antibodies (1:1000 dilution), subsequently detected with 1:200 dilutions of Alexa Fluor™ 488 Goat anti-Mouse IgG (H + L) Highly Cross-Adsorbed Secondary Antibody and Alexa Fluor™ 568 Goat anti-Rabbit IgG (H + L) Cross-Adsorbed Secondary Antibody. Sections were further stained with DAPI to detect all nuclei. Between each treatment, TBS Automation Wash Buffer (Biocare Medical TWB945M) was employed. Images were taken with LSM800 confocal microscope and ZEN system.

[4] = biological target: p75^NTR TMD (Homo sapiens, UniProt P08138); assay: 2D NMR (1H-15N TROSY-HSQC) chemical shift perturbation, p75NTR TMD in bicelles; conditions: 4 molar excess compound
[5] = mouse, in vivo
[6] = 1 uM 4A22 with 100 ng/ml NGF, A875 NT
[7] = 5 uM 4A22 with 100 ng/ml NGF, A875 NT

T1 sequence (P06821 23-43 limits assumed): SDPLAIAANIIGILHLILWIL
p75^NTR TMD, sequence (P08138 240-274 limits assumed): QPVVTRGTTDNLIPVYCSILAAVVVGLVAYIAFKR

## Oc1ccc(-c2cncc(Nc3ccc(Br)c(Cl)c3)n2)cc1 [Div17E5]
[1]; Div17E5 1 μM
  GFP/OD630, M2, single replicates: 96 and 90 and 113
  GFP/OD630, M2, mean: 100
[1]; Div17E5 2.5 μM
  GFP/OD630, M2, single replicates: 94 (2×) and 111
  GFP/OD630, M2, mean: 100
[1]; Div17E5 5 μM
  GFP/OD630, M2, single replicates: 89 and 109 and 92
  GFP/OD630, M2, mean: 97
[1]; Div17E5 10 μM
  GFP/OD630, M2, single replicates: 90 and 105 and 99
  GFP/OD630, M2, mean: 98
[1]; Div17E5 20 μM
  GFP/OD630, M2, single replicates: 109 and 89 and 98
  GFP/OD630, M2, mean: 99
[1]; Div17E5 50 μM
  GFP/OD630, M2, single replicates: 112 and 92 and 109
  GFP/OD630, M2, mean: 104

## Cc1cccc(-c2cncc(Nc3ccc(Br)c(Cl)c3Cl)n2)c1C [Np75-4A22]
[2]; 1 uM 4A22 + 100 ng/ml NGF
  Filopodia per cell, mean of the well: 24.0741 and 41.2222 and 33.1667 and 30.2857
[2]; 1 uM 4A22, A875 NT
  Filopodia per cell, mean of experiment: 30.1580 and 35.6954 and 33.9792
  Filopodia per cell, mean of three experiments: 33.2775
  Filopodia per cell, mean of well: 25.1429 and 30.1667 and 33.5 and 37.8333 and 34.4167
[2]; 1 uM 4A22, A875 NT, per image of a well
  Filopodia per cell (Filopodia / cell), single image: 35
[2]; 1 uM 4A22
  Filopodia per cell, mean of the well: 33.2292 and 40 and 23.375 and 24.0278
[2]; [6]
  Filopodia per cell, mean of experiment: 32.1872 and 28.1825 and 34.5833
  Filopodia per cell, mean of three experiments: 31.6510
  Filopodia per cell, mean of well: 24.6905 and 26.2143 and 30.7143 and 34.6667 and 32.8333 and 35 and 35.8333
[2]; 5 uM 4A22, A875 NT
  Filopodia per cell, mean of experiment: 31.8244 and 33.2924 and 31.8750
  Filopodia per cell, mean of three experiments: 32.3306
  Filopodia per cell, mean of well: 30.0714 and 40.9286 and 30.3571 and 31.8125 and 34.9167 and 27.4167 and 31.1667 and 34
[2]; 5 uM 4A22
  Filopodia per cell, mean of the well: 26.1667 and 28.75 and 43.1667 and 29.2143
[2]; [7]
  Filopodia per cell, mean of experiment: 28.5179 and 33.2679 and 34.0625
  Filopodia per cell, mean of three experiments: 31.9494
  Filopodia per cell, mean of well: 33.2976 and 34 and 40.1786 and 25.5952 and 29.75 and 31.9167 and 35.9167 and 38.6667
[2]; 1 or 5 μM
  filopodia per cell, compound alone: no effects per se
[2]; 1 or 5 μM, NGF 100 ng/ml
  NGF-induced filopodia per cell: completely abolished the effects of NGF
[3]; group average, wk2
  Average Photons/second/week, wk2: 9.88E+04 Photons/second
[3]; group average, wk3
  Average Photons/second/week, wk3: 1.46E+05 Photons/second
[3]; group average, wk4
  Average Photons/second/week, wk4: 1.10E+05 Photons/second
[3]; group average, wk5
  Average Photons/second/week, wk5: 2.77E+05 Photons/second
[3]; group average, wk6
  Average Photons/second/week, wk6: 4.60E+05 Photons/second
[3]; group average, wk7
  Average Photons/second/week, wk7: 1.10E+06 Photons/second
[3]; individual mouse, wk2
  Photons/second/ mouse/week, wk2: 1.05E+05 Photons/second and 6.22E+04 Photons/second and 8.27E+04 Photons/second and 9.38E+04 Photons/second and 1.02E+05 Photons/second and 8.99E+04 Photons/second and 1.49E+05 Photons/second and 1.09E+05 Photons/second and 9.56E+04 Photons/second
[3]; individual mouse, wk3
  Photons/second/ mouse/week, wk3: 1.10E+05 Photons/second and 1.18E+05 Photons/second and 1.42E+05 Photons/second and 1.47E+05 Photons/second and 1.39E+05 Photons/second and 1.86E+05 Photons/second and 1.67E+05 Photons/second and 1.65E+05 Photons/second and 1.36E+05 Photons/second
[3]; individual mouse, wk4
  Photons/second/ mouse/week, wk4: 1.43E+05 Photons/second and 9.53E+04 Photons/second and 1.42E+05 Photons/second and 1.00E+05 Photons/second and 1.24E+05 Photons/second and 1.66E+05 Photons/second and 4.36E+04 Photons/second and 7.52E+04 Photons/second and 1.02E+05 Photons/second
[3]; individual mouse, wk5
  Photons/second/ mouse/week, wk5: 1.26E+05 Photons/second and 1.70E+05 Photons/second and 1.58E+05 Photons/second and 1.31E+05 Photons/second and 1.75E+05 Photons/second and 1.89E+05 Photons/second and 1.28E+05 Photons/second and 4.29E+05 Photons/second and 9.90E+05 Photons/second
[3]; individual mouse, wk6
  Photons/second/ mouse/week, wk6: 2.09E+05 Photons/second and 1.96E+05 Photons/second and 2.02E+05 Photons/second and 2.61E+05 Photons/second and 6.18E+04 Photons/second and 1.19E+05 Photons/second and 3.83E+05 Photons/second and 2.25E+06 Photons/second
[3]; individual mouse, wk7
  Photons/second/ mouse/week, wk7: 1.96E+05 Photons/second and 1.65E+05 Photons/second and 3.28E+05 Photons/second and 1.98E+06 Photons/second and 3.78E+06 Photons/second
[4]
  chemical shift perturbations, p75NTR TMD: Significant chemical shifts
[5]
  single dose toxicity: No mortality or abnormal clinical signs
